Laboratory results as given in patent publication US9499550B2 (BRISTOL-MYERS SQUIBB COMPANY, priority 2012, dated 2016).
pEC50: −log10 of the molar value. Like-named read-outs stand apart in the source and are kept apart here.

Assays:
[1] = tested on: HCV genotype 1a (H77 strain) replicon in HUH-7 cells; assay: HCV replicon luciferase reporter assay, genotype 1a; format: cell-based; settings: Hepatitis C virus, Huh-7, 72 h, HCV genotype 1a replicon luciferase, 3 days incubation, read-out: LE_1a (EC50, range)
Outline: (§1)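 Replicon inhibition for both genotypes was measured as Renilla luciferase signal (EnduRen, 7.5 μM final, 2 h) after 3-day, 37° C exposure of replicon-bearing HUH-7 cells in 4% FCS DMEM, 0.5% DMSO. The 1b construct carries S1179I; the 1a H77 construct carries P1496L and S2204I. Twenty-point, 3-fold dilutions were fitted four-parametrically for EC50, and CC50 was taken from multiplexed Cell Titer-Blue.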

[2] = tested on: HCV genotype 1b (Con1) replicon in HUH-7 cells; assay: HCV replicon luciferase reporter assay, genotype 1b; format: cell-based; settings: Hepatitis C virus, Huh-7, 72 h, HCV genotype 1b replicon luciferase, 3 days incubation, read-out: LE_1b (EC50, range)
Outline: as §1

| Structure (SMILES) | pEC50 ([1]; GETYPE1A) | pEC50 ([2]; GETYPE1B) | pEC50 [1] | pEC50 [2] |
| --- | --- | --- | --- | --- |
| COc1cc2ccnc(O[C@@H]3C[C@H]4C(=O)N[C@]5(C(=O)NS(=O)(=O)C6CC6)C[C@H]5/C=C\CC[C@@H](C)C[C@@H](C)[C@H](NC(=O)OC(C)(C)C(F)(F)F)C(=O)N4C3)c2cc1F [Compound 4169] | > 8.26 | > 8.26 |  |  |
| COc1ccc2ncc(O[C@@H]3C[C@H]4C(=O)N[C@]5(C(=O)NS(=O)(=O)C6(CF)CC6)C[C@H]5/C=C\CC[C@@H](C)C[C@@H](C)[C@H](NCC(F)F)C(=O)N4C3)nc2c1 [Compound 4170] |  |  | < 7.06 | 6.99 to 8.32 |
| COc1ccc2c(O[C@@H]3C[C@H]4C(=O)N[C@]5(C(=O)NS(=O)(=O)C6(CF)CC6)C[C@H]5/C=C\CC[C@@H](C)C[C@@H](C)[C@H](NC(=O)c5ccncc5F)C(=O)N4C3)ncc(OC)c2c1 [Compound 4171, (2R,6S,7R,9R,13aS,14aR,16aS,Z)-2-(4,6-dimethoxyisoquinolin-1-yloxy)-6-(3-fluoroisonicotinamido)-N-(1-(fluoromethyl)cyclopropylsulfonyl)-7,9-dimethyl-5,16-dioxo-1,2,3,5,6,7,8,9,10,11,13a,14,14a,15,16,16a-hexadecahydrocyclopropa[e]pyrrolo[1,2-a][1,4]diazacyclopentadecine-14a-carboxamide] |  |  | > 8.26 | > 8.26 |
| COc1ccc2c(O[C@@H]3C[C@H]4C(=O)N[C@]5(C(=O)NS(=O)(=O)C6(C)CC6)C[C@H]5/C=C\CC[C@@H](C)C[C@@H](C)[C@H](NC(=O)OC(C)(C)C(F)(F)F)C(=O)N4C3)cc(-c3ccc(OC(C)C)cc3)nc2c1 [Compound 4172] | > 8.26 | > 8.26 |  |  |
| COc1ccc2c(O[C@@H]3C[C@H]4C(=O)N[C@]5(C(=O)NS(=O)(=O)C6(C)CC6)C[C@H]5/C=C\CC[C@@H](C)C[C@@H](C)[C@H](NC(=O)OC(C)(C)C)C(=O)N4C3)ncc(N3CCN(CC(F)F)CC3)c2c1 [Compound 4173] | > 8.26 | > 8.26 |  |  |
| CC[C@@H]1C[C@H](C)CC/C=C\[C@@H]2C[C@@]2(C(=O)NS(=O)(=O)C2(C)CC2)NC(=O)[C@@H]2C[C@@H](Oc3nccc4cc(OC)c(F)cc34)CN2C(=O)[C@H]1NC(=O)OC(C)(C)C [Compound 4175, tert-butyl (2R,6S,7R,9R,13aS,14aR,16aS,Z)-7-ethyl-2-(7-fluoro-6-methoxyisoquinolin-1-yloxy)-9-methyl-14a-(1-methylcyclopropylsulfonylcarbamoyl)-5,16-dioxo-1,2,3,5,6,7,8,9,10,11,13a,14,14a,15,16,16a-hexadecahydrocyclopropa[e]pyrrolo[1,2-a][1,4]diazacyclopentadecin-6-ylcarbamate] |  |  | > 8.26 | > 8.26 |
| CC[C@@H]1C[C@H](C)CC/C=C\[C@@H]2C[C@@]2(C(=O)NS(=O)(=O)C2(C)CC2)NC(=O)[C@@H]2C[C@@H](Oc3nccc4cc(OC)ccc34)CN2C(=O)[C@H]1NC(=O)O[C@H](C)C(F)(F)F [Compound 4177, (R)-1,1,1-trifluoropropan-2-yl (2R,6S,7R,9R,13aS,14aR,16aS,Z)-7-ethyl-2-(6-methoxyisoquinolin-1-yloxy)-9-methyl-14a-(1-methylcyclopropylsulfonylcarbamoyl)-5,16-dioxo-1,2,3,5,6,7,8,9,10,11,13a,14,14a,15,16,16a-hexadecahydrocyclopropa[e]pyrrolo[1,2-a][1,4]diazacyclopentadecin-6-ylcarbamate] |  |  | > 8.26 | > 8.26 |
| COc1ccc2c(O[C@@H]3C[C@H]4C(=O)N[C@]5(C(=O)NS(=O)(=O)C6(C)CC6)C[C@H]5/C=C\CC[C@@H](C)C[C@@H](C)[C@H](NC(=O)OC(C)(C)C(F)(F)F)C(=O)N4C3)ncc(-c3ccc(OC)nc3)c2c1 [Compound 4178] | > 8.26 | > 8.26 |  |  |
| C[C@@H]1CC/C=C\[C@@H]2C[C@@]2(C(=O)NS(=O)(=O)C2(C)CC2)NC(=O)[C@@H]2C[C@@H](Oc3cnc4ccc(F)cc4n3)CN2C(=O)[C@@H](NC(=O)OC(C)(C)C)[C@H](C)C1 [Compound 4179, tert-butyl (2R,6S,7R,9R,13aS,14aR,16aS,Z)-2-(7-fluoroquinoxalin-2-yloxy)-7,9-dimethyl-14a-(1-methylcyclopropylsulfonylcarbamoyl)-5,16-dioxo-1,2,3,5,6,7,8,9,10,11,13a,14,14a,15,16,16a-hexadecahydrocyclopropa[e]pyrrolo[1,2-a][1,4]diazacyclopentadecin-6-ylcarbamate] |  |  | > 8.26 | > 8.26 |
| CCOc1cnc(O[C@@H]2C[C@H]3C(=O)N[C@]4(C(=O)NS(=O)(=O)C5(C)CC5)C[C@H]4/C=C\CC[C@@H](C)C[C@@H](CC)[C@H](NC(=O)OC(C)(C)C)C(=O)N3C2)c2ccccc12 [Compound 4180, tert-butyl (2R,6S,7R,9R,13aS,14aR,16aS,Z)-2-(4-ethoxyisoquinolin-1-yloxy)-7-ethyl-9-methyl-14a-(1-methylcyclopropylsulfonylcarbamoyl)-5,16-dioxo-1,2,3,5,6,7,8,9,10,11,13a,14,14a,15,16,16a-hexadecahydrocyclopropa[e]pyrrolo[1,2-a][1,4]diazacyclopentadecin-6-ylcarbamate] |  |  | > 8.26 | > 8.26 |
| CC[C@@H]1C[C@H](C)CC/C=C\[C@@H]2C[C@@]2(C(=O)NS(=O)(=O)C2(C)CC2)NC(=O)[C@@H]2C[C@@H](Oc3ncc(OC)c4ccc(F)cc34)CN2C(=O)[C@H]1NC(=O)OC(C)(C)C [Compound 4181, tert-butyl (2R,6S,7R,9R,13aS,14aR,16aS,Z)-7-ethyl-2-(7-fluoro-4-methoxyisoquinolin-1-yloxy)-9-methyl-14a-(1-methylcyclopropylsulfonylcarbamoyl)-5,16-dioxo-1,2,3,5,6,7,8,9,10,11,13a,14,14a,15,16,16a-hexadecahydrocyclopropa[e]pyrrolo[1,2-a][1,4]diazacyclopentadecin-6-ylcarbamate] |  |  | > 8.26 | > 8.26 |
| CC[C@@H]1C[C@H](C)CC/C=C\[C@@H]2C[C@@]2(C(=O)NS(=O)(=O)C2(C)CC2)NC(=O)[C@@H]2C[C@@H](Oc3nccc4cc(OC)ccc34)CN2C(=O)[C@H]1NC(=O)OC(C)(C)C(F)(F)F [Compound 4182] | > 8.26 | > 8.26 |  |  |
| COc1ccc2nc(C(F)(F)F)c(O[C@@H]3C[C@H]4C(=O)N[C@]5(C(=O)NS(=O)(=O)C6(C)CC6)C[C@H]5/C=C\CC[C@@H](C)C[C@@H](C)[C@H](NC(=O)OC(C)(C)C)C(=O)N4C3)nc2c1 [Compound 4183, tert-butyl (2R,6S,7R,9R,13aS,14aR,16aS,Z)-2-(7-methoxy-3-(trifluoromethyl)quinoxalin-2-yloxy)-7,9-dimethyl-14a-(1-methylcyclopropylsulfonylcarbamoyl)-5,16-dioxo-1,2,3,5,6,7,8,9,10,11,13a,14,14a,15,16,16a-hexadecahydrocyclopropa[e]pyrrolo[1,2-a][1,4]diazacyclopentadecin-6-ylcarbamate] |  |  | > 8.26 | > 8.26 |
| CCOc1cnc(O[C@@H]2C[C@H]3C(=O)N[C@]4(C(=O)NS(=O)(=O)C5CC5)C[C@H]4/C=C\CC[C@@H](C)C[C@@H](CC)[C@H](NC(=O)OC(C)(C)C(F)(F)F)C(=O)N3C2)c2ccccc12 [Compound 4185] | > 8.26 | > 8.26 |  |  |
| CC[C@@H]1C[C@H](C)CC/C=C\[C@@H]2C[C@@]2(C(=O)NS(=O)(=O)C2(C)CC2)NC(=O)[C@@H]2C[C@@H](Oc3ncc(OC)c4ccc(Cl)cc34)CN2C(=O)[C@H]1NC(=O)OC(C)(C)C(F)(F)F [Compound 4188] | > 8.26 | > 8.26 |  |  |
| CC[C@@H]1C[C@H](C)CC/C=C\[C@@H]2C[C@@]2(C(=O)NS(=O)(=O)C2CC2)NC(=O)[C@@H]2C[C@@H](Oc3ncnc4cc(OC)ccc34)CN2C(=O)[C@H]1NC(=O)OC(C)(C)C(F)(F)F [Compound 4189] | > 8.26 | > 8.26 |  |  |
| CC[C@@H]1C[C@H](C)CC/C=C\[C@@H]2C[C@@]2(C(=O)NS(=O)(=O)C2CC2)NC(=O)[C@@H]2C[C@@H](Oc3ncc(OC)c4ccc(Cl)cc34)CN2C(=O)[C@H]1NC(=O)OC(C)(C)C(F)(F)F [Compound 4190] | > 8.26 | > 8.26 |  |  |
| CC[C@@H]1C[C@H](C)CC/C=C\[C@@H]2C[C@@]2(C(=O)NS(=O)(=O)C2(CF)CC2)NC(=O)[C@@H]2C[C@@H](Oc3nccc4cc(OC)c(F)cc34)CN2C(=O)[C@H]1NC(=O)OC(C)(C)C(F)(F)F [Compound 4193] | > 8.26 | > 8.26 |  |  |
| COc1ccc2nc(C(F)(F)F)c(O[C@@H]3C[C@H]4C(=O)N[C@]5(C(=O)NS(=O)(=O)C6(C)CC6)C[C@H]5/C=C\CC[C@@H](C)C[C@@H](C)[C@H](NC(=O)OC(C)(C)C(F)(F)F)C(=O)N4C3)nc2c1 [Compound 4195] | > 8.26 | > 8.26 |  |  |
| CC[C@@H]1C[C@H](C)CC/C=C\[C@@H]2C[C@@]2(C(=O)NS(=O)(=O)C2(C)CC2)NC(=O)[C@@H]2C[C@@H](Oc3ncc(OC)c4cc(OC)ccc34)CN2C(=O)[C@H]1NC(=O)OC(C)(C)C [Compound 4196, tert-butyl (2R,6S,7R,9R,13aS,14aR,16aS,Z)-2-(4,6-dimethoxyisoquinolin-1-yloxy)-7-ethyl-9-methyl-14a-(1-methylcyclopropylsulfonylcarbamoyl)-5,16-dioxo-1,2,3,5,6,7,8,9,10,11,13a,14,14a,15,16,16a-hexadecahydrocyclopropa[e]pyrrolo[1,2-a][1,4]diazacyclopentadecin-6-ylcarbamate] |  |  | > 8.26 | > 8.26 |
| CC[C@@H]1C[C@H](C)CC/C=C\[C@@H]2C[C@@]2(C(=O)NS(=O)(=O)C2(C)CC2)NC(=O)[C@@H]2C[C@@H](Oc3ncc(OC)c4cc(OC)ccc34)CN2C(=O)[C@H]1NC(=O)OC(C)(C)C(F)(F)F [Compound 4197] | > 8.26 | > 8.26 |  |  |
